Experimental data published in ChEMBL document CHEMBL4422616, “The P-glycoprotein inhibitor diltiazem-like 8-(4-chlorophenyl)-5-methyl-8-[(2Z)-pent-2-en-1-yloxy]-8H-[1,2,4]oxadiazolo[3,4-c][1,4]thiazin-3-one inhibits esterase activity and H3 histone acetylation” (Eur J Med Chem, 2019).
Activity calls are given as the source filed them. No cut-off for these calls is given here.

Tests used:
HEK293 [1] = assay: Inhibition of HAT in HEK293 cells assessed as decrease in histone H3 acetylation at Lys27 residues at 100 uM incubated for 48 hrs by Western blot analysis relative to control; format: cell-based; conditions: Homo sapiens
HepG2 [2] = assay: Cytotoxicity against human HepG2 cells assessed as reduction in cell viability at 500 uM after 24 to 48 hrs by MTT assay relative to control; format: cell-based; conditions: hepg2, 500 µM
HEK293 [3] = assay: Inhibition of HAT in HEK293 cells assessed as decrease in histone H3 acetylation at Lys27 residues at 100 uM incubated for 48 hrs in presence of TSA by Western blot analysis; format: cell-based; conditions: Homo sapiens
HepG2 [4] = assay: Inhibition of HAT in human HepG2 cells assessed as decrease in histone H3 acetylation at Lys27 residues at 100 uM incubated for 48 hrs in presence of TSA by Western blot analysis; format: cell-based
[5] = biological target: ATP-binding cassette sub-family C member 6 (Homo sapiens, UniProt O95255); assay: Inhibition of ABCC6 (unknown origin) expressed in HEK293 cells assessed as increase in doxorubicin efflux at 100 uM after 30 mins by fluorescence assay; format: cell-based; conditions: hek293, 0.5 h
HepG2 [6] = assay: Cytotoxicity against human HepG2 cells assessed as reduction in cell viability up to 100 uM after 48 hrs by MTT assay; format: cell-based; conditions: hepg2, 48 h
HepG2 [7] = assay: Cytotoxicity against human HepG2 cells assessed as morphological alteration up to 100 uM after 48 hrs by MTT assay; format: cell-based; conditions: hepg2, 48 h
[8] = biological target: Acetylcholinesterase (Homo sapiens) (UniProt P22303); assay: Inhibition of AChE (unknown origin) assessed as residual activity at 10 uM using acetylthiocholine chloride as substrate measured for 10 mins (reference value: 100 +/- 1.2%)
HepG2 [9] = assay: Inhibition of HAT in human HepG2 cells assessed as decrease in histone H3 acetylation at Lys27 residues at 100 uM incubated for 48 hrs by Western blot analysis relative to control; format: cell-based
[10] = biological target: Acetylcholinesterase (Homo sapiens) (UniProt P22303); assay: Inhibition of AChE (unknown origin) assessed as residual activity at 50 uM using acetylthiocholine chloride as substrate measured for 10 mins (reference value: 100 +/- 1.2%)
HEK293 [11] = assay: Cytotoxicity against HEK293 cells assessed as reduction in cell viability at 500 uM after 24 to 48 hrs by MTT assay relative to control; format: cell-based; conditions: human, hek293, 500 µM
HEK293 [12] = assay: Cytotoxicity against HEK293 cells assessed as morphological alteration up to 100 uM after 48 hrs by MTT assay; format: cell-based; conditions: human, hek293, 48 h
HepG2 [13] = assay: Inhibition of esterase in human hepG2 cells at 100 uM after 1 hr by calcein-AM dye-based fluorescence assay relative to control; format: cell-based
HEK293 [14] = assay: Cytotoxicity against HEK293 cells assessed as reduction in cell viability up to 100 uM after 48 hrs by MTT assay; format: cell-based; conditions: human, hek293, 48 h
[15] = biological target: Acetylcholinesterase (Homo sapiens) (UniProt P22303); assay: Inhibition of AChE (unknown origin) assessed as residual activity at 100 uM using acetylthiocholine chloride as substrate measured for 10 mins (reference value: 100 +/- 1.2%)
[16] = biological target: Acetylcholinesterase (Homo sapiens) (UniProt P22303); assay: Inhibition of AChE (unknown origin) using acetylthiocholine chloride as substrate measured for 10 mins
HEK293 [17] = assay: Inhibition of esterase in HEK293 cells at 100 uM after 1 hr by calcein-AM dye-based fluorescence assay relative to control; format: cell-based; conditions: Homo sapiens

Chain of Acetylcholinesterase (Homo sapiens) (P22303 whole entry): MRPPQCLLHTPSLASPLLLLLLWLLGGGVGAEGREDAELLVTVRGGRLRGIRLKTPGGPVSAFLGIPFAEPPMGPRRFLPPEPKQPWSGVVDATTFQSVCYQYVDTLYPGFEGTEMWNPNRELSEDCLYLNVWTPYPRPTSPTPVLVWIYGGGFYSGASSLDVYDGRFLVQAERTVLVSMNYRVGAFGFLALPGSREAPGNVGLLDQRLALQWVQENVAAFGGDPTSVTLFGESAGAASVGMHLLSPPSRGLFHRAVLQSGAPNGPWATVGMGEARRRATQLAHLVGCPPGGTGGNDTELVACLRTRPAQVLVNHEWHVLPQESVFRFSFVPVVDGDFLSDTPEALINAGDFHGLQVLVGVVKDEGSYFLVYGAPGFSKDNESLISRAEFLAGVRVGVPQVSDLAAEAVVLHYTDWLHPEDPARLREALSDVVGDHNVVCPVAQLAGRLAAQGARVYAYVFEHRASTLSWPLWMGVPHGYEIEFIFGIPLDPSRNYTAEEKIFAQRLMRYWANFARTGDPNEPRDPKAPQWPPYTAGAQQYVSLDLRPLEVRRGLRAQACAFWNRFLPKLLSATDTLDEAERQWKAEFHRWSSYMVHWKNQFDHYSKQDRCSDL
Chain of ATP-binding cassette sub-family C member 6 (O95255 whole entry): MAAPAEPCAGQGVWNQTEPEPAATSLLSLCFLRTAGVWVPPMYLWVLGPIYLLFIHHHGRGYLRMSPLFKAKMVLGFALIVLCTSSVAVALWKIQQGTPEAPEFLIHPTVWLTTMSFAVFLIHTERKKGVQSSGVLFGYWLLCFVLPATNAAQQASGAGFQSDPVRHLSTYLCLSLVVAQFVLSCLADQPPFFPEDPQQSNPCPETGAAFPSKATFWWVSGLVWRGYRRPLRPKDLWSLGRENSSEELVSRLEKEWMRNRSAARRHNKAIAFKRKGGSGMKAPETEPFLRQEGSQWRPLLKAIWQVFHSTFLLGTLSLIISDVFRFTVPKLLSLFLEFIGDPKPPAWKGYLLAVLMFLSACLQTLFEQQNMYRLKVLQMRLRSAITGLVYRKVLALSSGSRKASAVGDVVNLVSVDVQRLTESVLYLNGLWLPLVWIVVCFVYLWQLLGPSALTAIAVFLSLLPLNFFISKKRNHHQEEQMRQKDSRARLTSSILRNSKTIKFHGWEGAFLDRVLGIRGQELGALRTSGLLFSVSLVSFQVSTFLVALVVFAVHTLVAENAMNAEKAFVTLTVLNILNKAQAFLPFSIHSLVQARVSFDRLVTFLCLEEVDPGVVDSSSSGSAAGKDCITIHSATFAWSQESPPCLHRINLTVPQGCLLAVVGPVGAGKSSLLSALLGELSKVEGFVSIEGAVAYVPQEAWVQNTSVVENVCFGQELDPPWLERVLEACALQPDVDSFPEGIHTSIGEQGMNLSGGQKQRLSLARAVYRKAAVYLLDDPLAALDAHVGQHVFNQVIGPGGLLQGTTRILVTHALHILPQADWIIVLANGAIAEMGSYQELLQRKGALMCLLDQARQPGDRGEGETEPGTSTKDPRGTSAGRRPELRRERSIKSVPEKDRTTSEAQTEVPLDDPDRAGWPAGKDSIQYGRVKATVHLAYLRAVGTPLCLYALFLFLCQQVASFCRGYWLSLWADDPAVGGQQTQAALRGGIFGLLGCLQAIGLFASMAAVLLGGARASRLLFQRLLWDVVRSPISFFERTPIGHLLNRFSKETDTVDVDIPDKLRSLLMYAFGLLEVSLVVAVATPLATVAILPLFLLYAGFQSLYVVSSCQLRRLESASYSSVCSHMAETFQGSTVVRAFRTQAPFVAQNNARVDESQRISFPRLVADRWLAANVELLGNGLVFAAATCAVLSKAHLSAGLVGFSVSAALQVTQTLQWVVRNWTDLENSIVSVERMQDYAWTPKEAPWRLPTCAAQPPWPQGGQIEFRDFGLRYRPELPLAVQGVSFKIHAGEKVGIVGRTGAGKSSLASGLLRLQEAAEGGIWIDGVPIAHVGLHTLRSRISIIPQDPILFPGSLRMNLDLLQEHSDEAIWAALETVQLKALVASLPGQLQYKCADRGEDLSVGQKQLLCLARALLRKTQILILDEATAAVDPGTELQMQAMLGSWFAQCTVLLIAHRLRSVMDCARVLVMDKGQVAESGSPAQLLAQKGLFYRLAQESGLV

In the case of `CC/C=C\COC1(c2ccc(Cl)cc2)SC=C(C)n2c1noc2=O` (configuration not stated), the inhibition (HEK293 [1]) is reported as 80%, the Activity (HepG2 [2]) is reported as 50% and the inhibition (HEK293 [3]) is reported as “Active”. The inhibition (HepG2 [4]) was “Active”, the “inhibition (INH)” value [5] was “Active” and the Activity (HepG2 [6]) was “Non-Toxic”. The Activity (HepG2 [7]) was “Non-Toxic”, the Activity [8] was 80% and the inhibition (HepG2 [9]) was 56%. The Activity [10] was 61%, the Activity (HEK293 [11]) was 50% and the Activity (HEK293 [12]) was “Non-Toxic”. The inhibition (HepG2 [13]) was 50%, the Activity (HEK293 [14]) was “Non-Toxic” and the Activity [15] was 56%. For the same compound, the inhibition [16] was “Dose-dependent effect” and the inhibition (HEK293 [17]) was 60%.
